Measurements published in article PMC5071162 (ACS chemical neuroscience, 2016).
pEC50: −log10 of the molar value. Like-named read-outs stand apart in the source and are kept apart here.

Biological target: human GPR88 (Homo sapiens, UniProt Q9GZN0)
Assay: Lance cAMP assay using stable PPLS-HA-GPR88 CHO cells
Type: cell-based
Settings: for EC50: EC50 (nM)

Chain of human GPR88 (Q9GZN0 whole entry): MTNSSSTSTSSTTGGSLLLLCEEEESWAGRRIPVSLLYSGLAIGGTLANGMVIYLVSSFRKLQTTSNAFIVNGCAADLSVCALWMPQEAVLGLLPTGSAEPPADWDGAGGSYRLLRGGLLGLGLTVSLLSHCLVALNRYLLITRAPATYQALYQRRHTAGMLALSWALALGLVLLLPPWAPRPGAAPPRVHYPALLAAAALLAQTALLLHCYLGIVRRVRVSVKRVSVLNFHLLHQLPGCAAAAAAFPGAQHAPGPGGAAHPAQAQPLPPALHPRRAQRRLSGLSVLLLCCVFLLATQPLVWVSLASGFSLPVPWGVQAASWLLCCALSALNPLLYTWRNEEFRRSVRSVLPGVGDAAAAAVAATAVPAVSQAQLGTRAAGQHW

SMILES | pEC50 (EC50) | further results
CC[C@H](C)[C@H](N)CN(C(=O)[C@@H]1C[C@H]1c1ccccn1)c1ccc(-c2ccccc2)cc1 (relative stereo) [4d, (1R*,2R*)-2-(Pyridin-2-yl)cyclopropanecarboxylic Acid [(2S,3S)-2-Amino-3-methylpentyl]-(biphenyl-4-yl)amide] | – | pEC50: 6.55
CC[C@H](C)[C@H](N)CN(C(=O)[C@@H]1C[C@H]1c1ccccn1)c1ccc(-c2ccc(C)cc2)cc1 (relative stereo) [5a, (1R*,2R*)-2-(Pyridin-2-yl)cyclopropanecarboxylic Acid [(2S,3S)-2-Amino-3-methylpentyl]-(4′-methylbiphenyl-4-yl)amide] | 6.98 | EC50: 104 nM
CC[C@H](C)[C@H](N)CN(C(=O)[C@@H]1C[C@H]1c1ccccn1)c1ccc(-c2ccc(C(=O)N(C)C)cc2)cc1 (relative stereo) [5aa, (1R*,2R*)-2-(Pyridin-2-yl)cyclopropanecarboxylic Acid [(2S,3S)-2-Amino-3-methylpentyl]-[4′-(dimethylcarbamoyl)biphenyl-4-yl]-amide] | 5.48 | agonist activity in words (qualitative SAR statement, Lance cAMP assay): least activity in the series
CC[C@H](C)[C@H](N)CN(C(=O)[C@@H]1C[C@H]1c1ccccn1)c1ccc(-c2ccc(C(F)(F)F)cc2)cc1 (relative stereo) [5b, (1R*,2R*)-2-(Pyridin-2-yl)cyclopropanecarboxylic Acid [(2S,3S)-2-Amino-3-methylpentyl]-(4′-trifluoromethylbiphenyl-4-yl)amide] | 6.73 | –
CCc1ccc(-c2ccc(N(C[C@@H](N)[C@@H](C)CC)C(=O)[C@@H]3C[C@H]3c3ccccn3)cc2)cc1 (relative stereo) [5c, (1R*,2R*)-2-(Pyridin-2-yl)cyclopropanecarboxylic Acid [(2S,3S)-2-Amino-3-methylpentyl]-(4′-ethylbiphenyl-4-yl)amide] | 7.07 | EC50: 85 nM
CC[C@H](C)[C@H](N)CN(C(=O)[C@@H]1C[C@H]1c1ccccn1)c1ccc(-c2ccc(C(C)C)cc2)cc1 (relative stereo) [5d, (1R*,2R*)-2-(Pyridin-2-yl)cyclopropanecarboxylic Acid [(2S,3S)-2-Amino-3-methylpentyl]-(4′-isopropylbiphenyl-4-yl)amide] | 6.59 | –
CC[C@H](C)[C@H](N)CN(C(=O)[C@@H]1C[C@H]1c1ccccn1)c1ccc(-c2ccc(CC(C)C)cc2)cc1 (relative stereo) [5e, (1R*,2R*)-2-(Pyridin-2-yl)cyclopropanecarboxylic Acid [(2S,3S)-2-Amino-3-methylpentyl]-(4′-isobutylbiphenyl-4-yl)amide] | 6.57 | –
CC[C@H](C)[C@H](N)CN(C(=O)[C@@H]1C[C@H]1c1ccccn1)c1ccc(-c2ccc(C(C)(C)C)cc2)cc1 (relative stereo) [5f, (1R*,2R*)-2-(Pyridin-2-yl)cyclopropanecarboxylic Acid [(2S,3S)-2-Amino-3-methylpentyl]-(4′-tert-butylbiphenyl-4-yl)amide] | 6.29 | –
CCCCCCc1ccc(-c2ccc(N(C[C@@H](N)[C@@H](C)CC)C(=O)[C@@H]3C[C@H]3c3ccccn3)cc2)cc1 (relative stereo) [5g, (1R*,2R*)-2-(Pyridin-2-yl)cyclopropanecarboxylic Acid [(2S,3S)-2-Amino-3-methylpentyl]-(4′-hexylbiphenyl-4-yl)amide] | 6.87 | –
CC[C@H](C)[C@H](N)CN(C(=O)[C@@H]1C[C@H]1c1ccccn1)c1ccc(-c2ccc(C3CCCCC3)cc2)cc1 (relative stereo) [5h, (1R*,2R*)-2-(Pyridin-2-yl)cyclopropanecarboxylic Acid [(2S,3S)-2-Amino-3-methylpentyl]-(4′-cyclohexylbiphenyl-4-yl)amide] | 6.75 | pEC50 (pEC50): 6.76
CC[C@H](C)[C@H](N)CN(C(=O)[C@@H]1C[C@H]1c1ccccn1)c1ccc(-c2ccc(-c3ccccc3)cc2)cc1 (relative stereo) [5i, (1R*,2R*)-2-(Pyridin-2-yl)cyclopropanecarboxylic Acid [(2S,3S)-2-Amino-3-methylpentyl]-(4′-phenylbiphenyl-4-yl)amide] | 6.54 | –
CC[C@H](C)[C@H](N)CN(C(=O)[C@@H]1C[C@H]1c1ccccn1)c1ccc(-c2ccc(OC(F)(F)F)cc2)cc1 (relative stereo) [5k, (1R*,2R*)-2-(Pyridin-2-yl)cyclopropanecarboxylic Acid [(2S,3S)-2-Amino-3-methylpentyl]-(4′-trifluoromethoxybiphenyl-4-yl)amide] | 6.86 | –
CCOc1ccc(-c2ccc(N(C[C@@H](N)[C@@H](C)CC)C(=O)[C@@H]3C[C@H]3c3ccccn3)cc2)cc1 (relative stereo) [5l, (1R*,2R*)-2-(Pyridin-2-yl)cyclopropanecarboxylic Acid [(2S,3S)-2-Amino-3-methylpentyl]-(4′-ethoxybiphenyl-4-yl)amide] | 7.09 | EC50: 82 nM
CC[C@H](C)[C@H](N)CN(C(=O)[C@@H]1C[C@H]1c1ccccn1)c1ccc(-c2ccc(OC(C)C)cc2)cc1 (relative stereo) [5m, (1R*,2R*)-2-(Pyridin-2-yl)cyclopropanecarboxylic Acid [(2S,3S)-2-Amino-3-methylpentyl]-(4′-isopropoxybiphenyl-4-yl)amide] | – | pEC50: 7.11
CC[C@H](C)[C@H](N)CN(C(=O)[C@@H]1C[C@H]1c1ccccn1)c1ccc(-c2ccc(OC)c(OC)c2)cc1 (relative stereo) [5n, (1R*,2R*)-2-(Pyridin-2-yl)cyclopropanecarboxylic Acid [(2S,3S)-2-Amino-3-methylpentyl]-(3′,4′-dimethoxybiphenyl-4-yl)amide] | 6.04 | fold loss of activity: approximately 10 fold
CC[C@H](C)[C@H](N)CN(C(=O)[C@@H]1C[C@H]1c1ccccn1)c1ccc(-c2ccc3c(c2)OCO3)cc1 (relative stereo) [5o, (1R*,2R*)-2-(Pyridin-2-yl)cyclopropanecarboxylic Acid [(2S,3S)-2-Amino-3-methylpentyl]-(3′,4′-methylenedioxybiphenyl-4-yl)amide] | 6.69 | EC50: 204 nM
CC[C@H](C)[C@H](N)CN(C(=O)[C@@H]1C[C@H]1c1ccccn1)c1ccc(-c2ccc(Cl)cc2)cc1 (relative stereo) [5q, (1R*,2R*)-2-(Pyridin-2-yl)cyclopropanecarboxylic Acid [(2S,3S)-2-Amino-3-methylpentyl]-(4′-chlorobiphenyl-4-yl)amide] | 6.67 | –
CC[C@H](C)[C@H](N)CN(C(=O)[C@@H]1C[C@H]1c1ccccn1)c1ccc(-c2ccc(C#N)cc2)cc1 (relative stereo) [5r, (1R*,2R*)-2-(Pyridin-2-yl)cyclopropanecarboxylic Acid [(2S,3S)-2-Amino-3-methylpentyl]-(4′-cyanobiphenyl-4-yl)amide] | 6.71 | –
CC[C@H](C)[C@H](N)CN(C(=O)[C@@H]1C[C@H]1c1ccccn1)c1ccc(-c2ccc([N+](=O)[O-])cc2)cc1 (relative stereo) [5s, (1R*,2R*)-2-(Pyridin-2-yl)cyclopropanecarboxylic Acid [(2S,3S)-2-Amino-3-methylpentyl]-(4′-nitrobiphenyl-4-yl)amide] | 6.56 | –
CC[C@H](C)[C@H](N)CN(C(=O)[C@@H]1C[C@H]1c1ccccn1)c1ccc(-c2ccc(C(C)=O)cc2)cc1 (relative stereo) [5t, (1R*,2R*)-2-(Pyridin-2-yl)cyclopropanecarboxylic Acid [(2S,3S)-2-Amino-3-methylpentyl]-(4′-acetylbiphenyl-4-yl)amide] | 6.45 | –
